# Data as given in publication PMC5681660, “Reduced hepatitis B and D viral entry using clinically applied drugs as novel inhibitors of the bile acid transporter NTCP” (Scientific Reports, 2017).
# Structures can show the parent of a compound that is named as a salt.
# Molecular target: T1, human NTCP (Homo sapiens, UniProt Q14973)
# T1 sequence (Q14973 1-349): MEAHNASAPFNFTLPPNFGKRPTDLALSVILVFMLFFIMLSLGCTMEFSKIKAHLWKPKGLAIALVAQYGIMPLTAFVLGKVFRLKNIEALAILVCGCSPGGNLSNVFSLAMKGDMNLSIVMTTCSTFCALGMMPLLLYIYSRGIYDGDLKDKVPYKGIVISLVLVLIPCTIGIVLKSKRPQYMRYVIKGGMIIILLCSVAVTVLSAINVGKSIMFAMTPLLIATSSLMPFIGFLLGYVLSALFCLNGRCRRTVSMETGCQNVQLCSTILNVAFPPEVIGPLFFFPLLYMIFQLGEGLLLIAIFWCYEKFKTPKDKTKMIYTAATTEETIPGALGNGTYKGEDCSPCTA
# Assay: Screening taurocholate uptake assay (96-well, [14C]taurocholate, 10 µM drug)
# Conditions: for B-score functional assay: screening taurocholate uptake, 10 µM drug
# [1] = ranking over the functional and the binding screening assay
# [2] = combined ranking of functional and binding screening assays
Molecule,Ranking score [1],B-score functional assay,Ranking score [2],B-score functional assay (B-score)
CC(C)(O)c1ccccc1CC[C@@H](SCC1(CC(=O)O)CC1)c1cccc(/C=C/c2ccc3ccc(Cl)cc3n2)c1 [Montelukast],55.3173,-3.762,,
CC[C@H](C)C(=O)O[C@H]1C[C@@H](C)C=C2C=C[C@H](C)[C@H](CC[C@@H]3C[C@@H](O)CC(=O)O3)[C@H]21 [Lovastatin],175.818,-0.084,,
CC(=O)Nc1ccc(OCC(O)CNC(C)C)cc1 (stereo not drawn) [Practolol],213.764,-2.472,,
CN1CCN2c3ncccc3Cc3ccccc3C2C1 (stereo not drawn) [Mirtazapine],,0.174,576.426,
Nc1nc2c(ncn2CCC(CO)CO)c(=O)[nH]1 [Penciclovir],,-0.886,573.819,
CC(=O)N(CC(O)CN(C(C)=O)c1c(I)c(C(=O)NCC(O)CO)c(I)c(C(=O)NCC(O)CO)c1I)c1c(I)c(C(=O)NCC(O)CO)c(I)c(C(=O)NCC(O)CO)c1I (stereo not drawn) [Iodixanol],270.78,2.051,,
CC(=O)[C@H]1CC[C@H]2[C@@H]3CCC4=CC(=O)CC[C@]4(C)[C@H]3CC[C@]12C [Progesterone],,0.628,609.007,
Nc1c2ccccc2nc2ccccc12 [Aminacrine],,-0.079,608.609,
CN1CCN(c2c(F)cc3c(=O)c(C(=O)O)cn(CCF)c3c2F)CC1 [Fleroxacin],,,1148.84,1.693
c1ccc2c(CC3=NCCN3)cccc2c1 [Naphazoline hydrochloride],143.903,-2.093,,
CN1CCCC(CC2c3ccccc3Sc3ccccc32)C1 (stereo not drawn) [Metixene hydrochloride],,0.08,516.538,
C[C@@](Cc1ccc(O)c(O)c1)(NN)C(=O)O [Carbidopa],,0.686,597.675,
CCN(CC)CCOC(=O)C(Cc1cccc2ccccc12)CC1CCCO1 (stereo not drawn) [Nafronyl oxalate],,-1.268,488.941,
c1ccc2c(c1)OCC(C1=NCCN1)O2 (stereo not drawn) [Idazoxan hydrochloride],198.728,-2.926,,
O=c1[nH]c(=O)n([C@H]2C[C@H](O)[C@@H](CO)O2)cc1I [Idoxuridine],91.1921,-4.488,,
CC(C)(Oc1ccc(C2CC2(Cl)Cl)cc1)C(=O)O (stereo not drawn) [Ciprofibrate],,0.025,539.316,
NC(=O)c1ccc[n+]([C@@H]2O[C@H](COP(=O)([O-])OP(=O)(O)OC[C@H]3O[C@@H](n4cnc5c(N)ncnc54)[C@H](O)[C@@H]3O)[C@@H](O)[C@H]2O)c1 [Nadide],,0.371,475.971,
O=C(O)CCCc1ccc(N(CCCl)CCCl)cc1 [Chlorambucil],169.183,-1.869,,
C[C@@H]1C[C@@H]([C@H](O)CC2CC(=O)NC(=O)C2)C(=O)[C@@H](C)C1 [Cycloheximide],,0.172,464.697,

Molecule,Ranking score [1],B-score functional assay,Ranking score [2],B-score functional assay (B-score)
OC(c1ccccc1)(c1ccccc1)C1CCNCC1 [Azacyclonol],,-0.041,525.026,
COC(=O)Nc1nc2ccc(SC(C)C)cc2[nH]1 [Methiazole],275.739,-0.825,,
CN(C)CCOC(=O)C(c1ccccc1)C1(O)CCCC1 (stereo not drawn) [Cyclopentolate hydrochloride],,-0.521,624.063,
"Nc1c2c(nc3ccccc13)CCCC2O.O=C(O)/C=C\C(=O)O (racemic) [Hydroxytacrine maleate (R,S)]",180.3,2.059,,
O=C(C1CCCCC1)N1CC(=O)N2CCc3ccccc3C2C1 (stereo not drawn) [Praziquantel],262.237,-0.749,,
CCCOc1cc(N)ccc1C(=O)OCCN(CC)CC [Propoxycaine hydrochloride],73.2735,-2.561,,
CC(CN(C)C)CN1c2ccccc2CCc2ccccc21.O=C(O)/C=C\C(=O)O (stereo not drawn) [Trimipramine maleate salt],129.248,-0.962,,
CC(=O)[C@@]12O[C@](C)(c3ccccc3)O[C@@H]1C[C@H]1[C@@H]3CCC4=CC(=O)CC[C@]4(C)[C@H]3CC[C@@]12C [Algestone acetophenide],142.566,-2.799,,
CCN(CC)CCOC(=O)C(c1ccccc1)C1CCCCC1 (stereo not drawn) [Drofenine hydrochloride],,-0.177,532.5,
COc1c(N2CCNC(C)C2)c(F)cc2c(=O)c(C(=O)O)cn(C3CC3)c12 (stereo not drawn) [Gatifloxacin],,-0.592,627.155,
CCC1(c2cccc(O)c2)CCCCN(C)C1 (stereo not drawn) [Meptazinol hydrochloride],,-1.3,474.66,
NC[C@H]1CC[C@H](C(=O)O)CC1 [Tranexamic acid],255.588,0.375,,
CO/N=C(\C(=O)N[C@@H]1C(=O)N2C(C(=O)O)=C(C[N+]3(C)CCCC3)CS[C@H]12)c1csc(N)n1 [Cefepime hydrochloride],,,1157.98,1.484
C[C@H](CCC(=O)O)[C@H]1CC[C@H]2[C@@H]3CC[C@@H]4C[C@H](O)CC[C@]4(C)[C@H]3CC[C@]12C [Lithocholic acid],22.4499,-6.112,,
CCCc1ncc(C[n+]2ccccc2C)c(N)n1 [Amprolium hydrochloride],254.142,-0.209,,
COc1ccc(-c2ccc(=N)n(CCCC(=O)O)n2)cc1 [Gabazine bromide],269.035,-0.231,,
CCOC(=O)NNc1nncc2ccccc12 [Todralazine hydrochloride],269.251,-1.372,,
O=C(Nc1ccc([N+](=O)[O-])cc1Cl)c1cc(Cl)ccc1O [Niclosamide],178.326,-3.546,,
CN/C(=N/CCSCc1nc[nH]c1C)NC#N [Cimetidine],269.583,-0.365,,

Molecule,Ranking score [1],B-score functional assay,Ranking score [2],B-score functional assay (B-score)
C[N+]1(C)CCCC(OC(=O)C(O)(c2ccccc2)c2ccccc2)C1 (stereo not drawn) [Mepenzolate bromide],,1.196,545.72,
Cc1cccc(C)c1OCC(C)N (stereo not drawn) [Mexiletine hydrochloride],,-0.898,487.63,
CN(C(=O)C(Cl)Cl)c1ccc(OC(=O)c2ccco2)cc1 [Diloxanide furoate],,,1159.98,1.688
CC(CN(C)C)C(C)(O)Cc1ccc(Cl)cc1.Cl (stereo not drawn) [Clobutinol hydrochloride],,-0.006,492.244,
C=C1c2c(Cl)ccc(O)c2C(=O)C2=C(O)[C@]3(O)C(=O)C(C(N)=O)=C(O)[C@@H](N(C)C)[C@@H]3[C@@H](O)[C@H]12.O=C(O)c1cc(S(=O)(=O)O)ccc1O [Meclocycline sulfosalicylate],,0.486,647.296,
COc1ccc(OC)c(C(O)C(C)N)c1 (stereo not drawn) [Methoxamine hydrochloride],,-0.662,647.236,
C[C@@H]1C[C@H]2[C@@H]3C[C@H](F)C4=CC(=O)C=C[C@]4(C)[C@@]3(Cl)[C@@H](O)C[C@]2(C)[C@H]1C(=O)COC(=O)C(C)(C)C [Clocortolone pivalate],,,1150.27,4.298
CC(C)NCC(O)COc1ccc(COCCOC(C)C)cc1 (stereo not drawn) [Bisoprolol fumarate],263.481,0.023,,
C[C@H](O)C(=O)Nc1c(I)c(C(=O)NC(CO)CO)c(I)c(C(=O)NC(CO)CO)c1I [Iopamidol],105.925,-2.672,,
O=C1c2ccccc2C(=O)C1c1ccccc1 [Phenindione],,1.774,569.166,
CS(=O)(=O)O.O=C(O[C@H]1C[C@H]2CC3C[C@@H](C1)N2CC3=O)c1c[nH]c2ccccc12 [Dolasetron mesilate],,,1169.41,1.844
CCCCC1(COC(=O)CCC(=O)O)C(=O)N(c2ccccc2)N(c2ccccc2)C1=O [Suxibuzone],,,1138,1.433
C=C1CC[C@@]2(O)[C@H]3Cc4ccc(O)c5c4[C@@]2(CCN3CC2CC2)[C@H]1O5 [Nalmefene hydrochloride],,0.055,642.564,
CC[C@H](C)C(=O)O[C@H]1C[C@H](O)C=C2C=C[C@H](C)[C@H](CC[C@@H](O)C[C@@H](O)CC(=O)O)[C@H]21 [Pravastatin],245.632,-3.481,,
CN(C)CCN1C(=O)c2ccccc2N(C)c2ccccc21.Cl [Dibenzepine hydrochloride],,-0.713,501.825,
"Cc1c(O)c(=O)n(-c2ccccc2)n1C [Antipyrine, 4-hydroxy]",262.114,-1.78,,
Colistin sulfate,,-0.917,,
CC[N+](CC)(CC)CCOc1cccc(OCC[N+](CC)(CC)CC)c1OCC[N+](CC)(CC)CC [Gallamine triethiodide],,3.679,565.721,
